# Assay results: US10966425B2, “Fungicidal compositions” (SYNGENTA PARTICIPATIONS AG, priority 2016, dated 2021)
# How the values were obtained:
# Pyrenophora teres = Pyrenophora teres / barley / leaf disc preventative (net blotch); type: in vivo; settings: 200 ppm, barley leaf segments cv. Hasso, 5-7 days after application
# Description: Barley leaf segments cv. Hasso are placed on agar in a multiwell plate (24-well format) and sprayed with the formulated test compound diluted in water. The leaf segments are inoculated with a spore suspension of the fungus 2 days after application. The inoculated leaf segments are incubated at 20° C. and 65% rh under a light regime of 12 h light/12 h darkness in a climate cabinet and the activity of a compound is assessed as disease control compared to untreated when an appropriate level of disease damage appears in untreated check leaf segments (5-7 days after application).
melting point,Structure (SMILES),control of Pyrenophora teres (Pyrenophora teres)
142 to 149 °C,Cc1cccc2c1ncn2C1=NC(C)(C)C(F)(F)c2ccccc21,
45 to 46 °C,Cc1cccc2c1ncn2C1=NC(C)(C)C(C)(C)c2c(F)cccc21 [Compound E-1],
48 to 49 °C,CC1(C)N=C(n2cnc3c(Br)cccc32)c2cccc(F)c2C1(C)C [Compound E-4],
123 to 125 °C,Cc1cccc2c1ncn2C1=NC(C)(C)C(=O)c2ccccc21 [Compound E-10],
113 to 114 °C,CC(C)c1cccc2c1ncn2C1=NC(C)(C)C(C)(C)c2c(F)cccc21 [Compound E-12],
70 to 71 °C,C=Cc1cccc2c1ncn2C1=NC(C)(C)C(C)(C)c2c(F)cccc21 [Compound E-13],
87 to 88 °C,CCc1cccc2c1ncn2C1=NC(C)(C)C(C)(C)c2c(F)cccc21 [Compound E-14],
,Cc1cccc2c1ncn2C1=NC(C)(C)C(C)(C)c2ccccc21 [Compound E-16],at least 80%
50 to 51 °C,CC1(C)N=C(n2cnc3c(Cl)cccc32)c2cccc(F)c2C1(C)C [Compound E-17],
178 to 179 °C,COC(=O)c1cccc2c1ncn2C1=NC(C)(C)C(C)(C)c2c(F)cccc21 [Compound E-24],
159 to 161 °C,Cc1ccc2c(ncn2C2=NC(C)(C)C(=O)c3ccccc32)c1C [Compound E-25],
96 to 101 °C,Cc1cccc2c1C(=O)C(C)(C)N=C2n1cnc2c(C)cccc21 [Compound E-26],
145 to 149 °C,Cc1cccc2c1C(=O)C(C)(C)N=C2n1cnc2c(C)c(C)ccc21 [Compound E-27],
118 to 121 °C,Cc1c(F)ccc2c1ncn2C1=NC(C)(C)C(F)(F)c2ccccc21 [Compound E-32],
129 to 133 °C,Cc1cccc2c1ncn2C1=NC(C)(C)C(=O)c2cc(Cl)ccc21 [Compound E-34],
133 to 136 °C,Cc1c(F)ccc2c1ncn2C1=NC(C)(C)C(=O)c2cc(Cl)ccc21 [Compound E-35],
196 to 199 °C,Cc1ccc2c(ncn2C2=NC(C)(C)C(=O)c3cc(Cl)ccc32)c1C [Compound E-36],
197 to 200 °C,CC1(C)N=C(n2cnc3c(Cl)cccc32)c2ccc(Cl)cc2C1(F)F [Compound E-37],
52 to 54 °C,Cc1cccc2c1ncn2C1=NC(C)(C)Cc2c(Br)cccc21 [Compound E-38],
126 to 127 °C,CC1(C)N=C(n2cnc3cc(Cl)c(Cl)cc32)c2cccc(F)c2C1(C)C [Compound E-39],
122 to 124 °C,Cc1c(Br)ccc2c1ncn2C1=NC(C)(C)C(C)(C)c2c(F)cccc21 [Compound E-41],
102 to 103 °C,Cc1c(Cl)ccc2c1ncn2C1=NC(C)(C)C(C)(C)c2c(F)cccc21 [Compound E-42],
132 to 133 °C,Cc1cccc2c1ncn2C1=NC2(CCC2)Cc2ccccc21 [Compound E-43],
147 to 151 °C,Cc1cccc2c1ncn2C1=NC(C)(C)C(C)(C)c2c1ccc(Cl)c2F [Compound E-45],
122 to 125 °C,Cc1cccc2c1ncn2C1=NC(C)(C)C(C)(C)c2c1ccc(F)c2F [Compound E-46],
112 to 114 °C,CC1(C)N=C(n2cnc3c(F)c(F)ccc32)c2cccc(F)c2C1(C)C [Compound E-50],
177 to 178 °C,CC1(C)N=C(n2cnc3c4c(ccc32)CCC4)c2cccc(F)c2C1(C)C [Compound E-51],
143 to 145 °C,Cc1ccc2c(ncn2C2=NC(C)(C)Cc3cc(F)ccc32)c1C [Compound E-57],
141 to 143 °C,Cc1ccc2c(ncn2C2=NC3(CC3)C3(CC3)c3ccccc32)c1C [Compound E-58],
118 to 120 °C,Cc1cccc2c1ncn2C1=NC(C)(C)C(C)(C)c2c(F)cccc21 [X.011],
